These results are taken from patent US9023809B2, “Phenylalanine dipeptide derivatives, compositions and use thereof” (The Key Laboratory of Chemistry For Natural Products of …, priority 2008, dated 2015).

Structures are written as SMILES. In brackets after ≈: the same amount, converted by molar mass. Several values for one entry are separate records, joined by “and”; a condition that tells them apart may be missing. Equal entries are not always repeated. Where a SMILES comes first, the peptide text is derived from it. [ ]: non-standard residue; d: D form. The star is where a group is joined. Phe(4-NO2) = N[C@@H](Cc1ccc([N+](=O)[O-])cc1)C(=O)O; Phe(4-NH2) = Nc1ccc(C[C@H](N)C(=O)O)cc1; Propionyl = CCC(=O)*; Bz = O=C(c1ccccc1)*

One data set concerns HBV DNA replication. The data set is described as follows: In vitro anti-HBV: inhibition of HBV DNA replication in 2.2.15 cells (dot blot). As to conditions: day 8, dot blot; for IC50: Hepatitis B virus, 192 h. The format is cell-based, hepatitis B virus. As to the method:
(§1) Cell control wells were simultaneously set up. […] IC50 and SI were calculated, respectively.

The test system of another data set is 2.2.15 cells. The data set is described as follows: Cytotoxicity (TC50, median toxic concentration) in 2.2.15 cells. The format is cell-based. As to the method: as §1

The term IC50 denotes the concentration that gives 50% inhibition. Low readings indicate greater potency, high ones weaker potency. For the compound `COC(=O)[C@H](Cc1ccccc1)NC(=O)[C@H](Cc1ccccc1)NC(=O)c1ccc(F)cc1` [Example 03, methyl N-(N-4-fluoro-benzoyl-L-phenylalanyl)-L-phenylalaninate], in the data set on HBV DNA replication, inhibition was half-maximal at 0.63 µg/mL (≈ 1.4 µM) (IC50). This compound also registered a TC50 in the data set on 2.2.15 cells of 17.81 µg/mL (≈ 39.7 µM).

In general, melting point refers to the temperature, or range, at which the solid turns liquid. `COC(=O)[C@H](Cc1ccc(O)cc1)NC(=O)[C@H](Cc1ccccc1)NC(=O)c1ccccc1` [Example 04, methyl N-(N-benzoyl-L-phenylalanyl)-L-tyrosinate] (Bz-Phe-Tyr-OMe) displayed a melting point of 184 to 186 °C. For the same compound, the IC50 with HBV DNA replication amounted to 51.8 µg/mL (≈ 116 µM). The TC50 in the data set with 2.2.15 cells came to 450.67 µg/mL (≈ 1010 µM).

As to `Cc1cccc(C(=O)N[C@@H](Cc2ccccc2)C(=O)N[C@H](CO)Cc2ccccc2)c1` [Example 05, N-(N-3-methyl-benzoyl-L-phenylalanyl)-L-phenylalaninol], the melting point lay in the range of 177 to 178.5 °C. Half-maximal inhibition in the data set with HBV DNA replication (IC50) required 25.2 µg/mL (≈ 60.5 µM). This compound returned a TC50 in the data set on 2.2.15 cells of 77.04 µg/mL (≈ 185 µM).

In turn, `O=C(N[C@@H](Cc1ccccc1)C(=O)N[C@H](CO)Cc1ccccc1)c1ccc(Cl)cc1` [Example 07, N-(N-4-chloro-benzoyl-L-phenylalanyl)-L-phenylalaninol] gave a melting point of 211.5 to 214 °C. Further, the IC50 in the data set on HBV DNA replication was 1.02 µg/mL (≈ 2.33 µM). For the same compound, in the data set on 2.2.15 cells, the TC50 was 28.74 µg/mL (≈ 65.8 µM).

For the compound `O=C(N[C@@H](Cc1ccc(O)cc1)C(=O)N[C@H](CO)Cc1ccccc1)c1ccc(Cl)cc1` [Example 19, N-(N-4-chloro-benzoyl-L-tyrosyl)-L-phenylalaninol], in the data set on HBV DNA replication, the IC50 worked out at 103 µg/mL (≈ 228 µM). In the data set on 2.2.15 cells, this compound yielded a TC50 of 587.06 µg/mL (≈ 1300 µM).

As to `O=C(N[C@@H](Cc1ccccc1)C(=O)N[C@H](CO)Cc1ccccc1)c1ccc(O)cc1` [Example 27, N-(N-4-hydroxyl-benzoyl-L-phenylalanyl)-L-phenylalaninol], the melting point was 223 to 225 °C. Also, in the data set on 2.2.15 cells, the TC50 was 441.29 µg/mL and 456.75 µg/mL.

The compound `O=C(N[C@H](CO)Cc1ccccc1)[C@H](Cc1ccc(O)cc1)NCc1ccncc1` [Example 47, N-(N-isonicotinyl-L-tyrosyl)-L-phenylalaninol] yielded a melting point of 210 to 212 °C. This compound also gave a TC50 with 2.2.15 cells of 256.78 µg/mL (≈ 633 µM).

For the compound `CN(C)Cc1ccc(C(=O)N[C@@H](Cc2ccccc2)C(=O)N[C@H](CO)Cc2ccccc2)cc1` [Example 49, N-[N-(4-dimethylaminomethyl-benzoyl)-L-phenylalanyl]-L-phenylalaninol], half-maximal inhibition in the data set with HBV DNA replication (IC50) required 7.28 µg/mL (≈ 15.8 µM). Moreover, in the data set with 2.2.15 cells, the TC50 came to 86.23 µg/mL (≈ 188 µM).

As for `CC(=O)Nc1ccc(C[C@H](NC(=O)c2ccccc2)C(=O)N[C@H](COC(C)=O)Cc2ccccc2)cc1` [Example 54, N-(N-benzoyl-4-acetamido-L-phenylalanyl)-O-acetyl-L-phenylalaninol], in the data set with HBV DNA replication, the IC50 turned out to be 0.82 µg/mL (≈ 1.63 µM). The TC50 in the data set with 2.2.15 cells is 43.11 µg/mL (≈ 85.9 µM).

`CC(=O)OC[C@H](Cc1ccccc1)NC(=O)[C@H](Cc1ccccc1)NC(=O)c1ccccc1` [Example 55, N-(N-benzoyl-L-phenylalanyl)-O-acetyl-L-phenylalaninol] displayed an IC50 in the data set with HBV DNA replication of 4.96 µg/mL (≈ 11.2 µM). This compound also registered a TC50 in the data set with 2.2.15 cells of 53.42 µg/mL (≈ 120 µM).

As for `COC(=O)[C@H](Cc1ccc(N)cc1)NC(=O)[C@H](Cc1ccccc1)NC(=O)c1ccccc1.Cl` [Example 58, methyl N-(N-benzoyl-L-phenylalanyl)-4-amino-L-phenylalaninate hydrochloride] (Bz-Phe-[Phe(4-NH2)]-OMe), the melting point lay within 173 to 175 °C. In the data set on 2.2.15 cells, this compound yielded a TC50 of 28.74 µg/mL.

Compound `COC(=O)[C@H](Cc1ccc(NC(C)=O)cc1)NC(=O)[C@H](Cc1ccccc1)NC(=O)c1ccccc1` [Example 59, methyl N-(N-benzoyl-L-phenylalanyl)-4-acetamido-L-phenylalaninate] (Bz-Phe-[Phe(4-NH2)](Ac)-OMe) displayed a melting point of 228 to 229.5 °C. The same compound registered a TC50 in the data set with 2.2.15 cells of 258.69 µg/mL (≈ 531 µM).

In turn, `COC(=O)[C@H](Cc1ccccc1)NC(=O)[C@H](Cc1ccc(OC(C)=O)c(NC(C)=O)c1)NC(=O)c1ccccc1` [Example 63, methyl N-(N-benzoyl-O-acetyl-3-acetamido-L-tyrosyl)-L-phenylalaninate] showed an IC50 with HBV DNA replication of 53.1 µg/mL (≈ 97.4 µM). This compound also registered a TC50 with 2.2.15 cells of 358.02 µg/mL (≈ 656 µM).

Compound `CCC(=O)Nc1ccc(C[C@H](NC(=O)[C@H](Cc2ccccc2)NC(=O)c2ccccc2)C(=O)OC)cc1` [Example 64, methyl N-(N-benzoyl-L-phenylalanyl)-4-propionamido-L-phenylalaninate] (Bz-Phe-[Phe(4-NH2)](Propionyl)-OMe) displayed a melting point of 244.5 to 246 °C. Further, in the data set on 2.2.15 cells, the TC50 was determined as 58.54 µg/mL (≈ 117 µM).

In turn, `CC(=O)c1ccc(C[C@@H](CO)NC(=O)[C@H](Cc2ccccc2)NC(=O)c2ccccc2)cc1` [Example 69, N-(N-benzoyl-L-phenylalanyl)-4-acetyl-L-phenylalaninol] came in with a melting point of 235.5 to 238 °C. In the data set on 2.2.15 cells, the TC50 was determined as 75.46 µg/mL (≈ 170 µM).

In the data set on HBV DNA replication, `COC(=O)[C@H](Cc1ccc(OC)cc1)NC(=O)[C@H](Cc1ccccc1)NC(=O)c1ccccc1` [Example 71, methyl N-(N-benzoyl-L-phenylalanyl)-O-methyl-L-tyrosinate] (Bz-Phe-Tyr(Me)-OMe) displayed an IC50 of 6.62 µg/mL (≈ 14.4 µM). The same compound gave a TC50 in the data set on 2.2.15 cells of 388.03 µg/mL (≈ 843 µM).

With `CN(C)CCOc1ccc(C(=O)N[C@@H](Cc2ccccc2)C(=O)N[C@H](CO)Cc2ccccc2)cc1` [Example 77, N-[N-4-(2-dimethylamino-ethoxyl)-benzoyl-L-phenylalanyl]-L-phenylalaninol], the “Inhibition of DNA Replication IC50” value in the data set on HBV DNA replication was 13.51 µg/mL. The TC50 in the data set on 2.2.15 cells worked out at 160.25 µg/mL (≈ 327 µM).

Take `COC(=O)[C@H](Cc1ccccc1)NC(=O)[C@H](Cc1ccccc1)NC(=O)c1ccc(OCCN(C)C)cc1` [Example 78, methyl N-[N-4-(2-dimethylamino-ethoxyl)-benzoyl-L-phenylalanyl]-L-phenylalaninate]: in the data set with HBV DNA replication, the “Inhibition of DNA Replication IC50” value was determined as 54.28 µg/mL. Also, the TC50 in the data set with 2.2.15 cells came to 257.31 µg/mL (≈ 497 µM).

In the data set on HBV DNA replication, `COc1ccc(C[C@H](NC(=O)[C@H](Cc2ccccc2)NC(=O)c2ccccc2)C(=O)[O-])cc1.[Na+]` [Example 79, N-(N-benzoyl-L-phenylalanyl)-O-methyl-L-tyrosine sodium salt] (Bz-Phe-Tyr(Me)-OH) displayed an IC50 of 9.59 µg/mL. This compound came in with a TC50 in the data set on 2.2.15 cells of 86.23 µg/mL.

Turning to `O=C(O)CCC(=O)Nc1ccc(C[C@H](NC(=O)c2ccccc2)C(=O)N[C@H](CO)Cc2ccccc2)cc1` [Example 83, N-[N-benzoyl-4-(3-carboxyl-propionamido)-L-phenylalanyl]-L-phenylalaninol], in the data set on HBV DNA replication, half-maximal inhibition (IC50) was put at 253 µg/mL (≈ 488 µM). The compound further showed a TC50 with 2.2.15 cells greater than 1000 µg/mL.

In the data set on HBV DNA replication, `CN(C)c1ccc(C[C@H](NC(=O)c2ccccc2)C(=O)N[C@H](CO)Cc2ccccc2)cc1` [Example 84, N-(N-benzoyl-4-dimethylamino-L-phenylalanyl)-L-phenylalaninol] showed a half-maximal inhibitory concentration (IC50) of 1.44 µg/mL (≈ 3.23 µM). In the data set on 2.2.15 cells, this compound registered a TC50 of 86.23 µg/mL (≈ 194 µM).

In the data set with HBV DNA replication, `O=C(N[C@@H](Cc1ccccc1)C(=O)N[C@@H](Cc1ccccc1)C(=O)O)c1ccccc1` [Example 86, N-(N-benzoyl-L-phenylalanyl)-L-phenylalanine] (Bz-Phe-Phe-OH) came in with an IC50 of 10.6 µg/mL (≈ 25.4 µM). The compound further yielded a TC50 in the data set with 2.2.15 cells of 130.56 µg/mL (≈ 313 µM).

In the data set with HBV DNA replication, `O=C(N[C@@H](Cc1ccc([N+](=O)[O-])cc1)C(=O)N[C@@H](Cc1ccccc1)C(=O)O)c1ccccc1` [Example 88, N-(N-benzoyl-4-nitro-L-phenylalanyl)-L-phenylalanine] (Bz-[Phe(4-NO2)]-Phe-OH) showed an IC50 of 25 µg/mL (≈ 54.2 µM). In addition, the TC50 in the data set on 2.2.15 cells is 388.03 µg/mL (≈ 841 µM).
